Measured values taken from US20200045972A1, “NOVEL 5-SUBSTITUTED IMIDAZOLYLMETHYL DERIVATIVES” (Bayer CropScience Aktiengesellschaft, priority 2016, published 2020).

Assay: Measurement of LogP values by HPLC on reversed phase columns (EEC directive 79/831 Annex V.A8)
Format: physicochemical
Conditions: method [a]: LC-UV, acidic range, 0.1% formic acid in water and acetonitrile as eluent (linear gradient from 10% to 95% acetonitrile); for chromatographic logP: reversed phase HPLC column
Experimental: Measurement of LogP values was performed according to EEC directive 79/831 Annex V.A8 by HPLC (High Performance Liquid Chromatography) on reversed phase columns with the following methods: • ^[a] LogP value is determined by measurement of LC-UV, in an acidic range, with 0.1% formic acid in water and acetonitrile as eluent (linear gradient from 10% acetonitrile to 95% acetonitrile). • ^[b] LogP value is determined by measurement of LC-UV, in a neutral range, with 0.001 molar ammonium acetate solution in water and acetonitrile as eluent (linear gradient from 10% acetonitrile to 95% acetonitrile). • ^[c] LogP value is determined by measurement of LC-UV, in an acidic range, with 0.1% phosphoric acid and acetonitrile as eluent (linear gradient from 10% acetonitrile to 95% acetonitrile). If more than one LogP value is available within the same method, all the values are given and separated by “+”. Calibration was done with straight-chain alkan2-ones (with 3 to 16 carbon atoms) with known LogP values (measurement of LogP values using retention times with linear interpolation between successive alkanones). Lambda-max-values were determined using UV-spectra from 200 nm to 400 nm and the peak values of the chromatographic signals.

SMILES	chromatographic logP	LogP
N#Cc1cncn1CC(O)(CC1CC(c2ccccc2)=NO1)C1(Cl)CC1 (racemic) [Example I-05, 1-[2-(1-chlorocyclopropyl)-2-hydroxy-3-(3-phenyl-4,5-dihydro-1,2-oxazol-5-yl)propyl]-1H-imidazole-5-carbonitrile]	2.71	
N#Cc1cncn1CC(O)(CC1CC(c2ccccc2)=NO1)C1(Cl)CC1 (racemic) [Example I-06, 1-[2-(1-chlorocyclopropyl)-2-hydroxy-3-(3-phenyl-4,5-dihydro-1,2-oxazol-5-yl)propyl]-1H-imidazole-5-carbonitrile]		2.59 ^[a]
N#Cc1cncn1CC(O)(Cc1cc(-c2ccccc2)no1)C1(Cl)CC1 (stereo not drawn) [Example I-03, 1-[2-(1-chlorocyclopropyl)-2-hydroxy-3-(3-phenyl-1,2-oxazol-5-yl)propyl]-1H-imidazole-5-carbonitrile]	2.54	
